Test results from patent US9458110B2, “Phenylpyrazole derivatives as potent ROCK1 and ROCK2 inhibitors” (BRISTOL-MYERS SQUIBB COMPANY, priority 2013, dated 2016).

Legend:
ROCK2 = ROCK2 (Homo sapiens (Human), UniProt O75116); test: ROCK assay (Caliper LABCHIP peptide phosphorylation), ROCK2; type: biochemical; conditions: 5 μM ATP, 1.5 μM peptide substrate;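 note: reaction stopped with EDTA, then phosphorylated and unphosphorylated peptide resolved by microfluidic electrophoresis, kinase inhibition computed at each compound concentration in dose-response series, DMSO under 2%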
Chain of ROCK2 (O75116 whole entry, species assumed): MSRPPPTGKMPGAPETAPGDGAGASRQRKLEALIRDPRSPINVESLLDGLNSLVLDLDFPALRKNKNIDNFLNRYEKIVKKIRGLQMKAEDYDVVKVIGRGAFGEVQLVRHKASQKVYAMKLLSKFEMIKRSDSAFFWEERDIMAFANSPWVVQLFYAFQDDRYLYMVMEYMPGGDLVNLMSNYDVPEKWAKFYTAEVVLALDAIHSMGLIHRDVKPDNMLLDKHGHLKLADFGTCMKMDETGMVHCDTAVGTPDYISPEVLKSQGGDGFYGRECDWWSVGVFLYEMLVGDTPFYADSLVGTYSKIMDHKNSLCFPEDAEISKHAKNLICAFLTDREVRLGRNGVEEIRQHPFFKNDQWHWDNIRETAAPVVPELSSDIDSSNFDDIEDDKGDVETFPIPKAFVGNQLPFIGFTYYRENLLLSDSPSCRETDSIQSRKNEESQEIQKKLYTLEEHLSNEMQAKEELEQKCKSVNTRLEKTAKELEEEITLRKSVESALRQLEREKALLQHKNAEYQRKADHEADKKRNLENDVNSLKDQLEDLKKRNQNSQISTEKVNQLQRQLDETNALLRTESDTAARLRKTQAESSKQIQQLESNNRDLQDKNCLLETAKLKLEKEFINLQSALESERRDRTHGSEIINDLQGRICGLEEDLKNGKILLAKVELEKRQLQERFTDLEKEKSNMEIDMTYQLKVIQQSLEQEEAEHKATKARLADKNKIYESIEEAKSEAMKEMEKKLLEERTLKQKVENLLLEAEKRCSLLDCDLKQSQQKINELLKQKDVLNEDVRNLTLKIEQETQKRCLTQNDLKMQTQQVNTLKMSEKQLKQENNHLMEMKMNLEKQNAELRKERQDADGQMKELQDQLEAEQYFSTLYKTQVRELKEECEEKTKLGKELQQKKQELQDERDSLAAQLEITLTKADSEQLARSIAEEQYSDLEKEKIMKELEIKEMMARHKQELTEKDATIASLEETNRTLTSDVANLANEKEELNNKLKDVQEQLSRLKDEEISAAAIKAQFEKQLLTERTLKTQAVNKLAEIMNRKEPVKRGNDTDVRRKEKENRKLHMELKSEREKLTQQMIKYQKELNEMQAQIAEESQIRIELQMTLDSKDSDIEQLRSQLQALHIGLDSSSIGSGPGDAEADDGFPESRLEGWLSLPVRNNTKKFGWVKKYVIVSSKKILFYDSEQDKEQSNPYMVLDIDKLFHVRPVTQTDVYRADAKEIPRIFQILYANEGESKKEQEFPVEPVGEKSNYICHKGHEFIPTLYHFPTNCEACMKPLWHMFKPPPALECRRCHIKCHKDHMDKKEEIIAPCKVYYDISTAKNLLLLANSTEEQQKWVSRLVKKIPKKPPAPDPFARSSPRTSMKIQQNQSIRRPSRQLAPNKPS

ROCK1 = ROCK1 (Homo sapiens (Human), UniProt Q13464); test: ROCK assay (Caliper LABCHIP peptide phosphorylation), ROCK1; type: biochemical; conditions: 5 μM ATP, 1.5 μM peptide substrate;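 note: Read-out is separation of phosphorylated from unphosphorylated peptide, with kinase activity inhibition computed at every concentration of a dose-response series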
Chain of ROCK1 (Q13464 whole entry, species assumed): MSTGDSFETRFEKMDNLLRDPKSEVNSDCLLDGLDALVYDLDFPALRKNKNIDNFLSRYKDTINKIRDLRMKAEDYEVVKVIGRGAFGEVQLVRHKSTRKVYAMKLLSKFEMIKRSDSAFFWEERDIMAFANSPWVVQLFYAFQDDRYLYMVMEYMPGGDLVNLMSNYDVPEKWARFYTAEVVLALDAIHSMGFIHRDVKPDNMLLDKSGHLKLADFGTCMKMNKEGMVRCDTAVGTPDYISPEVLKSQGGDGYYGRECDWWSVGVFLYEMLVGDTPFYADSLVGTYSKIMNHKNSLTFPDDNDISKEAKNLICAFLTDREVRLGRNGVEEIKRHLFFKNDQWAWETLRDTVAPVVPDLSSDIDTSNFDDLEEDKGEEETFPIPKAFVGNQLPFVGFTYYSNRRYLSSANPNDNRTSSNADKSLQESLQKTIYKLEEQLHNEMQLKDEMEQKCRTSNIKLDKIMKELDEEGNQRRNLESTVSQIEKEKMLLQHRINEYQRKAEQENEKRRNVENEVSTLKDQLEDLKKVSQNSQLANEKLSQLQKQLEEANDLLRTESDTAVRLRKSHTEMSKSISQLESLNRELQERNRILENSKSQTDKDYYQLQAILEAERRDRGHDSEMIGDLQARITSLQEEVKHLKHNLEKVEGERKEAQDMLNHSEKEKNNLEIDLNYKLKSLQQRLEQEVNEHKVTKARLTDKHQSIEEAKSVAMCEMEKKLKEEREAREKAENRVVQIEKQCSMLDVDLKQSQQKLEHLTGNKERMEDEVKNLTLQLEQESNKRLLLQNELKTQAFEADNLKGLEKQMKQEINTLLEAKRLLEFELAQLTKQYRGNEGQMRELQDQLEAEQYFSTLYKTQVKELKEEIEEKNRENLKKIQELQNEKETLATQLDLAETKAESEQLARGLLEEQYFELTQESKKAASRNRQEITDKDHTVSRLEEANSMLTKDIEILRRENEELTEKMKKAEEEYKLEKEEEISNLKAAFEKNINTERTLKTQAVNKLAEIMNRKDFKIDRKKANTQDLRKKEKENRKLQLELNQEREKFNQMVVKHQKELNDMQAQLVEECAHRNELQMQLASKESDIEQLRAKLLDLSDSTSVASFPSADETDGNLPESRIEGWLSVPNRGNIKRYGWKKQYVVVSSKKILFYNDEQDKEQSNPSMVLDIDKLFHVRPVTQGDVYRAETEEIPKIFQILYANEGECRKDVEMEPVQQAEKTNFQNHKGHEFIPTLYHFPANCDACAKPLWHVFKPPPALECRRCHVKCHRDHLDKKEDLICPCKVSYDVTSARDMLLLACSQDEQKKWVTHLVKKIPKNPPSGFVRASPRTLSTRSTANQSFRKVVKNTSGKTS

| IC50 (ROCK2) | IC50 (ROCK1) | Structure (SMILES) |
| --- | --- | --- |
| 7.99 nM | 41.8 nM | COc1cc(C(=O)NCc2cccc3[nH]ncc23)ccc1-c1cn[nH]c1 [Example 86, N-(1H-indazol-4-ylmethyl)-3-methoxy-4-(1H-pyrazol-4-yl)benzamide] |
| 130 nM | 724 nM | COc1cc(C(=O)NCc2cccc(N3CCCC3)c2)ccc1-c1cn[nH]c1 [Example 87, 3-methoxy-4-(1H-pyrazol-4-yl)-N-{[3-(pyrrolidin-1-yl)phenyl]methyl} benzamide] |
| 3.99 nM | 8.46 nM | COc1cc(C(=O)NCc2c(F)ccc(F)c2Cl)ccc1-c1cn[nH]c1 [Example 88, N-[(2-chloro-3,6-difluorophenyl)methyl]-3-methoxy-4-(1H-pyrazol-4-yl)benzamide] |
| 11.1 nM | 21.9 nM | COc1cc(C(=O)NCc2c(F)cc(F)cc2F)ccc1-c1cn[nH]c1 [Example 89, 3-methoxy-4-(1H-pyrazol-4-yl)-N-[(2,4,6-trifluorophenyl)methyl] benzamide] |
| 6.4 nM | 12.4 nM | COc1cc(C(=O)NC(CCO)c2ccccc2)ccc1-c1cn[nH]c1 (stereo not drawn) [Example 90, N-(3-hydroxy-1-phenylpropyl)-3-methoxy-4-(1H-pyrazol-4-yl)benzamide] |
| 7.66 nM | 38.5 nM | COc1cc(C(=O)NCc2cc(F)cc(F)c2F)ccc1-c1cn[nH]c1 [Example 91, 3-methoxy-4-(1H-pyrazol-4-yl)-N-[(2,3,5-trifluorophenyl)methyl] benzamide] |
| 27.6 nM | 99.3 nM | COc1cc(C(=O)NCc2ccc(Cl)cc2Cl)ccc1-c1cn[nH]c1 [Example 93, N-[(2,4-dichlorophenyl)methyl]-3-methoxy-4-(1H-pyrazol-4-yl)benzamide] |
| 6.33 nM | 24.6 nM | COc1cc(C(=O)NCc2cccc(NS(C)(=O)=O)c2)ccc1-c1cn[nH]c1 [Example 94, N-[(3-methanesulfon-amidophenyl)methyl]-3-methoxy-4-(1H-pyrazol-4-yl)benzamide] |
| 47.6 nM | 371 nM | COc1cc(C(=O)NCc2cccc(N(C)C)c2)ccc1-c1cn[nH]c1 [Example 95, N-{[3-(dimethylamino)phenyl]methyl}-3-methoxy-4-(1H-pyrazol-4-yl)benzamide] |
| 2.41 nM | 26 nM | COc1cc(CNC(=O)c2ccc(-c3cn[nH]c3)c(OC)c2)ccc1F [Example 96, N-[(4-fluoro-3-methoxyphenyl)methyl]-3-methoxy-4-(1H-pyrazol-4-yl)benzamide] |
| 2.46 nM | 22.9 nM | COc1cc(C(=O)NCc2c(F)ccc(F)c2F)ccc1-c1cn[nH]c1 [Example 97, 3-methoxy-4-(1H-pyrazol-4-yl)-N-[(2,3,6-trifluorophenyl)methyl] benzamide] |
| 2.95 nM | 17.8 nM | COc1cc(C(=O)NCc2c(F)cccc2F)ccc1-c1cn[nH]c1 [Example 98, N-[(2,6-difluorophenyl)methyl]-3-methoxy-4-(1H-pyrazol-4-yl)benzamide] |
| 1.36 nM | 15.8 nM | COc1cc(C(=O)NCc2ccc(Cl)cc2F)ccc1-c1cn[nH]c1 [Example 99, N-[(4-chloro-2-fluorophenyl)methyl]-3-methoxy-4-(1H-pyrazol-4-yl)benzamide] |
| 299 nM | 4080 nM | COc1cc(C(=O)NCc2cccc(N(C)C(C)=O)c2)ccc1-c1cn[nH]c1 [Example 100, 3-methoxy-N-{[3-(N-methyl-acetamido)phenyl]methyl}-4-(1H-pyrazol-4-yl)benzamide] |
| 189 nM | 742 nM | COc1cc(C(=O)NC(C)c2ccc3c(c2)OCCO3)ccc1-c1cn[nH]c1 (stereo not drawn) [Example 101, N-[1-(2,3-dihydro-1,4-benzodioxin-6-yl)ethyl]-3-methoxy-4-(1H-pyrazol-4-yl)benzamide] |
| 662 nM | 3770 nM | COc1cc(C(=O)NCc2ccc3[nH]c(=O)[nH]c3c2)ccc1-c1cn[nH]c1 [Example 102, 3-methoxy-N-[(2-oxo-2,3-dihydro-1H-1,3-benzodiazol-5-yl)methyl]-4-(1H-pyrazol-4-yl)benzamide] |
| 9.44 nM | 24.9 nM | COc1cc(C(=O)NCc2ccc3sccc3c2)ccc1-c1cn[nH]c1 [Example 104, N-(1-benzothiophen-5-ylmethyl)-3-methoxy-4-(1H-pyrazol-4-yl)benzamide] |
| 3.59 nM | 11.7 nM | COc1cc(C(=O)NCc2c(F)cccc2Cl)ccc1-c1cn[nH]c1 [Example 105, N-[(2-chloro-6-fluorophenyl)methyl]-3-methoxy-4-(1H-pyrazol-4-yl)benzamide] |
| 27 nM | 50.1 nM | COc1cc(C(=O)N[C@H](C)c2ccc3c(c2)CCO3)ccc1-c1cn[nH]c1 [Example 106, N-[(1R)-1-(2,3-dihydro-1-benzofuran-5-yl)ethyl]-3-methoxy-4-(1H-pyrazol-4-yl)benzamide] |
| 2.61 nM | 13.9 nM | COC(=O)c1cccc(CNC(=O)c2ccc(-c3cn[nH]c3)c(C)c2)c1 [Example 108, methyl 3-({[3-methyl-4-(1H-pyrazol-4-yl)phenyl] formamido}methyl) benzoate] |

| IC50 (ROCK2) | IC50 (ROCK1) | Structure (SMILES) |
| --- | --- | --- |
| 144 nM | 529 nM | COc1cccc([C@@H](C)NC(=O)c2ccc(-c3cn[nH]c3)cc2Cl)c1 [Example 109, 2-chloro-N-[(1R)-1-(3-methoxyphenyl)ethyl]-4-(1H-pyrazol-4-yl)benzamide] |
| 2.72 nM | 23.9 nM | COc1cc(C(=O)N[C@H](CO)[C@H](O)c2ccccc2)ccc1-c1cn[nH]c1 [Example 112, N-[(1R,2R)-1,3-dihydroxy-1-phenylpropan-2-yl]-3-methoxy-4-(1H-pyrazol-4-yl)benzamide] |
| 330 nM | 602 nM | COC[C@H](NC(=O)c1ccc(-c2cn[nH]c2)c(OC)c1)[C@@H](O)c1ccccc1 [Example 113, N-[(1S,2S)-1-hydroxy-3-methoxy-1-phenylpropan-2-yl]-3-methoxy-4-(1H-pyrazol-4-yl)benzamide] |
| 59.6 nM | 92.9 nM | COc1cccc(CCNC(=O)c2ccc(-c3cn[nH]c3)c(OC)c2)c1 [Example 114, 3-methoxy-N-[2-(3-methoxyphenyl)ethyl]-4-(1H-pyrazol-4-yl)benzamide] |
| 14 nM | 37.4 nM | COc1cc(C(=O)N[C@@H](Cc2ccccc2)C(N)=O)ccc1-c1cn[nH]c1 [Example 115, (2S)-2-{[3-methoxy-4-(1H-pyrazol-4-yl)phenyl] formamido}-3-phenyl-propanamide] |
| 17.9 nM | 55.2 nM | COc1cccc(C2(NC(=O)c3ccc(-c4cn[nH]c4)c(OC)c3)CC2)c1 [Example 116, 3-methoxy-N-[1-(3-methoxyphenyl)cyclopropyl]-4-(1H-pyrazol-4-yl)benzamide] |
| 30.2 nM | 50.5 nM | COc1cc(C(=O)NC[C@H](C)c2ccccc2)ccc1-c1cn[nH]c1 [Example 117, 3-methoxy-N-[(2R)-2-phenylpropyl]-4-(1H-pyrazol-4-yl)benzamide] |
| 27.7 nM | 38.7 nM | COc1cc(C(=O)NCC(C#N)c2ccccc2)ccc1-c1cn[nH]c1 (stereo not drawn) [Example 118, N-(2-cyano-2-phenylethyl)-3-methoxy-4-(1H-pyrazol-4-yl)benzamide] |
| 1010 nM | 2270 nM | COc1cc(C(=O)N[C@@H](Cc2ccc(F)cc2)C(=O)N(C)C)ccc1-c1cn[nH]c1 [Example 119, (2S)-3-(4-fluorophenyl)-2-{[3-methoxy-4-(1H-pyrazol-4-yl)phenyl] formamido}-N,N-dimethyl-propanamide] |
| 52 nM | 94.6 nM | COc1cc(C(=O)NCCc2cccc(C(F)(F)F)c2)ccc1-c1cn[nH]c1 [Example 120, 3-methoxy-4-(1H-pyrazol-4-yl)-N-{2-[3-(trifluoro-methyl)phenyl]ethyl} benzamide] |
| 78.1 nM | 166 nM | COc1cc(C(=O)NCCc2ccc(C(F)(F)F)cc2)ccc1-c1cn[nH]c1 [Example 121, 3-methoxy-4-(1H-pyrazol-4-yl)-N-{2-[4-(trifluoro-methyl)phenyl]ethyl} benzamide] |
| 23.2 nM | 35.5 nM | COc1cc(C(=O)NCC(O)c2ccccc2Cl)ccc1-c1cn[nH]c1 (stereo not drawn) [Example 122, N-[2-(2-chlorophenyl)-2-hydroxyethyl]-3-methoxy-4-(1H-pyrazol-4-yl)benzamide] |
| 41.6 nM | 84.1 nM | COc1cc(C(=O)NC[C@@H](O)c2ccccc2)ccc1-c1cn[nH]c1 [Example 123, N-[(2S)-2-hydroxy-2-phenylethyl]-3-methoxy-4-(1H-pyrazol-4-yl)benzamide] |
| 7 nM | 21.5 nM | COc1cc(C(=O)NCCc2cccc(O)c2)ccc1-c1cn[nH]c1 [Example 124, N-[2-(3-hydroxyphenyl)ethyl]-3-methoxy-4-(1H-pyrazol-4-yl)benzamide] |
| 84.9 nM | 156 nM | COc1cc(C(=O)NCC(c2ccccc2)N2CCCC2)ccc1-c1cn[nH]c1 (stereo not drawn) [Example 125, 3-methoxy-N-[2-phenyl-2-(pyrrolidin-1-yl)ethyl]-4-(1H-pyrazol-4-yl)benzamide] |
| 1350 nM | 155 nM | COc1ccccc1CCNC(=O)c1ccc(-c2cn[nH]c2)c(OC)c1 [Example 126, 3-methoxy-N-[2-(2-methoxyphenyl)ethyl]-4-(1H-pyrazol-4-yl)benzamide] |
| 32.1 nM | 23.4 nM | COc1cc(C(=O)NC[C@@H](O)c2cccc(Cl)c2)ccc1-c1cn[nH]c1 [Example 127, N-[(2S)-2-(3-chlorophenyl)-2-hydroxyethyl]-3-methoxy-4-(1H-pyrazol-4-yl)benzamide] |
| 5.7 nM | 12.5 nM | COc1cc(C(=O)N[C@H](CO)Cc2ccccc2)ccc1-c1cn[nH]c1 [Example 128, N-[(2S)-1-hydroxy-3-phenylpropan-2-yl]-3-methoxy-4-(1H-pyrazol-4-yl)benzamide] |
| 33.1 nM | 34 nM | COc1cc(C(=O)NC[C@@H](C)c2ccccc2)ccc1-c1cn[nH]c1 [Example 129, 3-methoxy-N-[(2S)-2-phenylpropyl]-4-(1H-pyrazol-4-yl)benzamide] |
